Reference: ChEMBL document CHEMBL1153701, “Synthesis and evaluation of antiallodynic and anticonvulsant activity of novel amide and urea derivatives of valproic acid analogues” (2009)
Activity calls are given as the source filed them. No cut-off for these calls is given here.

Experiments:
Rattus norvegicus [1] = test: Antiallodynic activity in ip dosed rat assessed as protection against spinal nerve ligation-induced neuropathic pain; type: functional
Mus musculus [2] = test: Antiepileptic activity in ip dosed CF1 mouse assessed as inhibition of maximal electroshock-induced seizures; type: functional
Rattus norvegicus [3] = species on record: Rattus norvegicus; test: Ratio of ED50 for antiallodynic activity in rat assessed as protection against spinal nerve ligation-induced neuropathic pain to ED50 for antiepileptic activity in rat by maximal electroshock-induced seizures assay; type: functional
Mus musculus [4] = test: Antiepileptic activity in CF1 mouse assessed as inhibition of maximal electroshock-induced seizures at 30 mg/kg, ip after 0.5 hrs; type: functional, organism-based; design: dose 30 mg/kg
Mus musculus [5] = test: Antiepileptic activity in CF1 mouse assessed as inhibition of maximal electroshock-induced seizures at 100 mg/kg, ip after 0.5 hrs; type: functional, organism-based; design: dose 100 mg/kg
Mus musculus [6] = test: Antiepileptic activity in CF1 mouse assessed as inhibition of maximal electroshock-induced seizures at 300 mg/kg, ip after 0.5 hrs; type: functional, organism-based; design: dose 300 mg/kg
Mus musculus [7] = test: Antiepileptic activity in CF1 mouse assessed as inhibition of maximal electroshock-induced seizures at 30 mg/kg, ip after 4 hrs; type: functional, organism-based; design: dose 30 mg/kg
Mus musculus [8] = test: Antiepileptic activity in CF1 mouse assessed as inhibition of maximal electroshock-induced seizures at 100 mg/kg, ip after 4 hrs; type: functional, organism-based; design: dose 100 mg/kg
Mus musculus [9] = test: Antiepileptic activity in CF1 mouse assessed as inhibition of maximal electroshock-induced seizures at 300 mg/kg, ip after 4 hrs; type: functional, organism-based; design: dose 300 mg/kg
Mus musculus [10] = test: Antiepileptic activity in CF1 mouse assessed as inhibition of subcutaneous pentylenetetrazole-induced seizures at 30 mg/kg, ip after 0.5 hrs; type: functional, organism-based; design: dose 30 mg/kg
Mus musculus [11] = test: Antiepileptic activity in CF1 mouse assessed as inhibition of subcutaneous pentylenetetrazole-induced seizures at 100 mg/kg, ip after 0.5 hrs; type: functional, organism-based; design: dose 100 mg/kg
Mus musculus [12] = test: Antiepileptic activity in CF1 mouse assessed as inhibition of subcutaneous pentylenetetrazole-induced seizures at 300 mg/kg, ip after 0.5 hrs; type: functional, organism-based; design: dose 300 mg/kg
Mus musculus [13] = test: Antiepileptic activity in CF1 mouse assessed as inhibition of subcutaneous pentylenetetrazole-induced seizures at 30 mg/kg, ip after 4 hrs; type: functional, organism-based; design: dose 30 mg/kg
Mus musculus [14] = test: Antiepileptic activity in CF1 mouse assessed as inhibition of subcutaneous pentylenetetrazole-induced seizures at 100 mg/kg, ip after 4 hrs; type: functional, organism-based; design: dose 100 mg/kg
Mus musculus [15] = test: Antiepileptic activity in CF1 mouse assessed as inhibition of subcutaneous pentylenetetrazole-induced seizures at 300 mg/kg, ip after 4 hrs; type: functional, organism-based; design: dose 300 mg/kg
Mus musculus [16] = test: Neurotoxicity in CF1 mouse assessed as protection against motor impairment at 30 mg/kg, ip after 0.5 hrs by rotarod test; type: functional, organism-based; design: dose 30 mg/kg
Mus musculus [17] = test: Neurotoxicity in CF1 mouse assessed as protection against motor impairment at 100 mg/kg, ip after 0.5 hrs by rotarod test; type: functional, organism-based; design: dose 100 mg/kg
Mus musculus [18] = test: Neurotoxicity in CF1 mouse assessed as protection against motor impairment at 300 mg/kg, ip after 0.5 hrs by rotarod test; type: functional, organism-based; design: dose 300 mg/kg
Mus musculus [19] = test: Neurotoxicity in CF1 mouse assessed as protection against motor impairment at 30 mg/kg, ip after 4 hrs by rotarod test; type: functional, organism-based; design: dose 30 mg/kg
Mus musculus [20] = test: Neurotoxicity in CF1 mouse assessed as protection against motor impairment at 100 mg/kg, ip after 4 hrs by rotarod test; type: functional, organism-based; design: dose 100 mg/kg
Mus musculus [21] = test: Neurotoxicity in CF1 mouse assessed as protection against motor impairment at 300 mg/kg, ip after 4 hrs by rotarod test; type: functional, organism-based; design: dose 300 mg/kg
Rattus norvegicus [22] = test: Antiallodynic activity in rat assessed as protection against spinal nerve ligation-induced neuropathic pain at 80 mg/kg, ip after 30 mins; type: functional, organism-based; design: dose 80 mg/kg
Rattus norvegicus [23] = test: Antiallodynic activity in rat assessed as protection against spinal nerve ligation-induced neuropathic pain at 80 mg/kg, ip after 60 mins; type: functional, organism-based; design: dose 80 mg/kg
Rattus norvegicus [24] = test: Antiallodynic activity in rat assessed as protection against spinal nerve ligation-induced neuropathic pain at 80 mg/kg, ip after 180 mins; type: functional, organism-based; design: dose 80 mg/kg
Rattus norvegicus [25] = test: Antiallodynic activity in rat assessed as protection against spinal nerve ligation-induced neuropathic pain at 80 mg/kg, ip after 240 mins; type: functional, organism-based; design: dose 80 mg/kg
Rattus norvegicus [26] = test: Antiallodynic activity in rat assessed as protection against spinal nerve ligation-induced neuropathic pain at 80 mg/kg, ip after 120 mins; type: functional, organism-based; design: dose 80 mg/kg
Rattus norvegicus [27] = test: Anticonvulsant activity in ip dosed albino Sprague-Dawley rat assessed as protection against pilocarpine-induced seizure; type: functional
Rattus norvegicus [28] = test: Anticonvulsant activity in albino Sprague-Dawley rat assessed as protection against pilocarpine-induced seizure at 65 mg/kg, ip; type: functional, organism-based; design: dose 65 mg/kg
Rattus norvegicus [29] = test: Anticonvulsant activity in albino Sprague-Dawley rat assessed as protection against pilocarpine-induced seizure at 130 mg/kg, ip treated after 30 mins of pilcarpine challenge; type: functional, organism-based; design: dose 130 mg/kg
Rattus norvegicus [30] = test: Anticonvulsant activity in albino Sprague-Dawley rat assessed as protection against pilocarpine-induced seizure at 450 mg/kg, ip; type: functional, organism-based; design: dose 450 mg/kg
Rattus norvegicus [31] = test: Anticonvulsant activity in albino Sprague-Dawley rat assessed as protection against pilocarpine-induced seizure at 600 mg/kg, ip treated after 30 mins of pilcarpine challenge; type: functional, organism-based; design: dose 600 mg/kg

Compound	Activity (Mus musculus [4])	Activity (Mus musculus [5])	Activity (Mus musculus [6])	Activity (Mus musculus [7])	Activity (Mus musculus [8])	Activity (Mus musculus [9])	Activity (Mus musculus [10])	Activity (Mus musculus [11])	Activity (Mus musculus [12])	Activity (Mus musculus [13])	Activity (Mus musculus [14])	Activity (Mus musculus [15])	Activity (Mus musculus [16])	Activity (Mus musculus [17])	Activity (Mus musculus [18])	Activity (Mus musculus [19])	Activity (Mus musculus [20])	Activity (Mus musculus [21])	Activity (Rattus norvegicus [22])	Activity (Rattus norvegicus [23])	other results
CCCC(CCC)C(N)=O [VALPROMIDE]																					ED50 (Rattus norvegicus [1]): 61 mg/kg; ED50 (Mus musculus [2]): 32 mg/kg; ratio (Rattus norvegicus [3]): 0.52
CCCC(C)C(N)=O (centres undefined)	inactive	inactive	inactive	inactive	inactive	inactive	inactive	inactive	inactive	inactive	inactive	inactive	inactive	inactive	inactive	inactive	inactive	inactive	inactive	inactive	
CC(C)(C)CC(N)=O	inactive	inactive	inactive	inactive	inactive	inactive	inactive	inactive	inactive	inactive		inactive	inactive	inactive		inactive	inactive		inactive	inactive	Activity (Rattus norvegicus [24]): inactive; Activity (Rattus norvegicus [25]): inactive; Activity (Rattus norvegicus [26]): inactive
CCCCC(CC)C(=O)NC(N)=O (centres undefined)	inactive		Active	inactive	inactive	inactive	inactive	inactive	Active	inactive	inactive	inactive	inactive	inactive	Active	inactive	inactive	inactive	inactive	inactive	Activity (Rattus norvegicus [24]): inactive; Activity (Rattus norvegicus [25]): inactive; ED50 (Rattus norvegicus [27]): 247 mg/kg; ED97 (Rattus norvegicus [27]): 439 mg/kg; Activity (Rattus norvegicus [26]): inactive
CCCC(C(N)=O)C(C)CC (centres undefined)	inactive		Active	inactive	inactive	inactive	inactive	inactive	Active	inactive	inactive	inactive	inactive	inactive		inactive	inactive	inactive			ED50 (Rattus norvegicus [1]): 49 mg/kg; ED50 (Mus musculus [2]): inactive; Activity (Rattus norvegicus [28]): Active; Activity (Rattus norvegicus [29]): Active; ED50 (Rattus norvegicus [27]): 84 mg/kg; ED97 (Rattus norvegicus [27]): 149 mg/kg
CCCC(C(N)=O)C(C)(C)C (centres undefined)	inactive		Active	inactive		Active	inactive	inactive	Active	inactive	inactive	inactive	inactive			inactive	inactive				Activity (Rattus norvegicus [28]): Active; Activity (Rattus norvegicus [29]): Active
CC(C)C(C)C(N)=O (centres undefined)	inactive	inactive	inactive	inactive	inactive	inactive	inactive	inactive	inactive	inactive	inactive	inactive	inactive	inactive	inactive	inactive	inactive	inactive			Activity (Rattus norvegicus [30]): Active; Activity (Rattus norvegicus [31]): Active
